We go through 13 compounds from ChEMBL document CHEMBL1201862, “PubChem BioAssay data set” (2004).

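Protocol summary: plate cells (96-well), add compound at 5 concentrations, incubate 48 h, interpolate endpoints linearly. Abbreviation: GI50, concentration required for 50% inhibition of growth.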 The source made the active and inactive calls. Rule as the data show it: active = GI50 up to about 1.1 µM and inactive = higher.

Some test systems named below: SNB-19; A498; M14; OVCAR-5; MDA-MB-231; KM12; MCF7; SNB-75; NCI-H460; COLO 205; BT-549; HCT-116; DU-145; NCI/ADR-RES; NCI-H23; CCRF-CEM; SK-MEL-5; OVCAR-3; SNB-78; KM-20L2.
Experiment in all cases: growth of human tumour cells (NCI), 48 h

Turning to `O=C(O)CCC(=O)Nc1ccc2ccccc2c1`, the GI50 in the assay with SNB-19, with A498, in the assay with M14, in the assay with OVCAR-5, in the assay with MDA-MB-231 and in the assay with KM12 was > 100 µM (inactive) each time. In addition, the GI50 with MCF7, with SNB-75, in the assay with NCI-H460, in the assay on COLO 205, in the assay on BT-549 and in the assay with HCT-116 was > 100 µM (inactive) throughout. In addition, the GI50 in the assay with DU-145, in the assay on NCI/ADR-RES, in the assay on NCI-H23, in the assay with CCRF-CEM, in the assay on SK-MEL-5 and in the assay on OVCAR-3 was > 100 µM (inactive) in each case.

As to `O=C1C=C/C(=N\c2ccc3c(c2)C(Br)c2ccccc2-3)O1` (configuration not stated), the GI50 in the assay with SNB-19, with M14, in the assay on SNB-75, with NCI-H460, in the assay on COLO 205 and with HCT-116 was > 100 µM (inactive) throughout. Further, the GI50 with SNB-78 was > 100 µM (inactive); in the assay on NCI-H23, > 100 µM (inactive); in the assay on CCRF-CEM, 26.8 µM (inactive); with OVCAR-3 it was > 100 µM (inactive).

Turning to `NCP(=O)(O)OCC(=O)O`, the GI50 in the assay with SNB-19, in the assay on A498, in the assay with M14, in the assay with OVCAR-5, in the assay with KM12 and in the assay with SNB-75 was > 100 µM (inactive) throughout. For the same compound, the GI50 in the assay with NCI-H460, with COLO 205, with HCT-116, in the assay on SNB-78, with NCI-H23 and in the assay with CCRF-CEM was > 100 µM (inactive) throughout. Moreover, the GI50 in the assay with SK-MEL-5 and in the assay with OVCAR-3 was > 100 µM (inactive) in each case.

Regarding `ON/N=C/c1cc2c(cc1Br)OCO2`, the GI50 in the assay on SNB-19 was > 386 µM (inactive); in the assay with OVCAR-5, 164 µM (inactive); in the assay with KM-20L2, > 386 µM (inactive); in the assay on KM12, > 386 µM (inactive); in the assay on NCI-H460 it was > 386 µM (inactive); with COLO 205, > 386 µM (inactive). Further, the GI50 in the assay on HCT-116 is > 386 µM (inactive); with NCI-H23 it was > 386 µM (inactive); with CCRF-CEM, > 386 µM (inactive); with SK-MEL-5 it was > 386 µM (inactive); in the assay with OVCAR-3, 295 µM (inactive).

For the compound `Brc1ccc2[nH]cc(-c3nc(-c4c[nH]c5ccccc45)cs3)c2c1`, the GI50 with SNB-19 is 3.51 µM (inactive); in the assay on A498, 2.88 µM (inactive); in the assay with M14, 1.74 µM (inactive); in the assay with OVCAR-5 it was 1.95 µM (inactive); in the assay on MDA-MB-231, 2.37 µM (inactive); in the assay on KM12 it was 2.09 µM (inactive). The GI50 in the assay with MCF7 is 2.8 µM (inactive); with SNB-75 it was 10.4 µM (inactive); in the assay with NCI-H460 it was 2.06 µM (inactive); with COLO 205 it was 1.22 µM (inactive); with BT-549, 7.52 µM (inactive); in the assay on HCT-116, 2.53 µM (inactive). The GI50 was 3.45 µM (inactive) in the assay on DU-145; 2.79 µM (inactive) in the assay with NCI/ADR-RES; 2.47 µM (inactive) in the assay on NCI-H23; 3.79 µM (inactive) in the assay on CCRF-CEM; 1.6 µM (inactive) in the assay on SK-MEL-5; 3.42 µM (inactive) in the assay on OVCAR-3.

Regarding `[N-]=[N+]=Nc1ccccc1C(=O)N1C(=O)c2ccccc2C(=O)N(C(=O)c2ccccc2N=[N+]=[N-])c2ccccc21`, the GI50 in the assay on SNB-19 was 60.4 µM (inactive); in the assay with A498, 42.2 µM (inactive); in the assay on M14, > 100 µM (inactive); in the assay with OVCAR-5, > 100 µM (inactive); in the assay with MDA-MB-231, 52.8 µM (inactive); with KM12, 57.8 µM (inactive). Further, the GI50 in the assay on MCF7 was 52.2 µM (inactive); in the assay with SNB-75, 21.4 µM (inactive); with NCI-H460, 66.7 µM (inactive); in the assay on COLO 205, 34.1 µM (inactive); in the assay on BT-549, 55.2 µM (inactive); in the assay on HCT-116 it was 35 µM (inactive). Also, the GI50 is > 100 µM (inactive) in the assay with DU-145; 40.8 µM (inactive) with NCI/ADR-RES; 86.5 µM (inactive) in the assay on NCI-H23; 11.1 µM (inactive) with CCRF-CEM; 47.2 µM (inactive) in the assay with SK-MEL-5; 37.7 µM (inactive) with OVCAR-3.

Take `CC(C)(C)C1CCC2c3c([nH]c4ccccc34)C3C(=O)N(c4ccccc4)C(=O)C3C2C1` (configuration not stated): the GI50 in the assay with SNB-19 is 6.59 µM (inactive); with A498, 2.5 µM (inactive); in the assay on M14, 4.43 µM (inactive); in the assay with OVCAR-5 it was > 100 µM (inactive); in the assay with KM12, 21.4 µM (inactive); in the assay on SNB-75 it was 2.85 µM (inactive). Further, the GI50 is 3.7 µM (inactive) in the assay with NCI-H460; 4.35 µM (inactive) in the assay on COLO 205; 5.5 µM (inactive) in the assay with SNB-78; 12 µM (inactive) in the assay on NCI-H23; 2.77 µM (inactive) with CCRF-CEM; > 10 µM (inactive) in the assay with SK-MEL-5. For the same compound, the GI50 in the assay with OVCAR-3 is 4.01 µM (inactive).

As for `N/C(=N\O)N/N=C/c1cccs1`, the GI50 with SNB-19 was > 100 µM (inactive); in the assay with A498, > 100 µM (inactive); with M14 it was 47.1 µM (inactive); in the assay on OVCAR-5, 47.1 µM (inactive); with KM12 it was 49.1 µM (inactive); in the assay with SNB-75, 20 µM (inactive). For the same compound, the GI50 was 33.7 µM (inactive) with NCI-H460; 55.7 µM (inactive) in the assay with COLO 205; > 100 µM (inactive) in the assay on HCT-116; > 100 µM (inactive) with SNB-78; > 100 µM (inactive) in the assay with NCI-H23; > 100 µM (inactive) in the assay with CCRF-CEM. In addition, the GI50 in the assay on OVCAR-3 was 34.9 µM (inactive).

Take `CC(=O)/C(=C\NC(N)=S)C(=O)Nc1ccccc1C`: the GI50 in the assay with SNB-19, in the assay with A498, with M14, with OVCAR-5, in the assay on MDA-MB-231 and in the assay on KM12 was > 100 µM (inactive) each time. Moreover, the GI50 in the assay with MCF7, in the assay on SNB-75, with NCI-H460, in the assay with COLO 205, in the assay with BT-549 and in the assay with HCT-116 was > 100 µM (inactive) each time. Besides, the GI50 with DU-145, in the assay with NCI/ADR-RES, in the assay with NCI-H23, in the assay with CCRF-CEM, with SK-MEL-5 and in the assay with OVCAR-3 was > 100 µM (inactive) each time.

As to `C=C1C(=O)O[C@H]2[C@H](OC(C)=O)[C@@H](C)CCC/C(C)=C/CC[C@@]3(C)O[C@@H]3C[C@@H]12`, the GI50 in the assay with SNB-19 was 13.6 µM (inactive); with A498 it was 3.56 µM (inactive); in the assay on M14 it was 4.23 µM (inactive); in the assay with OVCAR-5 it was 8.26 µM (inactive); in the assay with MDA-MB-231, 4.08 µM (inactive); in the assay on KM12, 6.44 µM (inactive). The GI50 is 2.31 µM (inactive) with MCF7; 6.21 µM (inactive) with SNB-75; 5.26 µM (inactive) in the assay on NCI-H460; 3.19 µM (inactive) in the assay with COLO 205; 2.94 µM (inactive) with BT-549; 2.23 µM (inactive) with HCT-116. The GI50 was 2.32 µM (inactive) with DU-145; 1.59 µM (inactive) with NCI/ADR-RES; 4.04 µM (inactive) with NCI-H23; 0.661 µM (active) with CCRF-CEM; 4.19 µM (inactive) in the assay on SK-MEL-5; 4.97 µM (inactive) with OVCAR-3.

Take `[N-]=[N+]=CC(=O)OC1Cc2ccccc2C1`: the GI50 in the assay on SNB-19 was > 100 µM (inactive); in the assay on A498, > 100 µM (inactive); with M14 it was > 100 µM (inactive); with OVCAR-5, 73.1 µM (inactive); in the assay on MDA-MB-231, > 100 µM (inactive); in the assay with KM12 it was > 100 µM (inactive). Further, the GI50 with MCF7 is > 100 µM (inactive); in the assay on SNB-75, 50.4 µM (inactive); with NCI-H460, > 100 µM (inactive); with COLO 205 it was > 72.6 µM (inactive); in the assay with BT-549 it was > 100 µM (inactive); in the assay on HCT-116, > 100 µM (inactive). For the same compound, the GI50 with DU-145 was 21.1 µM (inactive); in the assay with NCI/ADR-RES, > 100 µM (inactive); in the assay with NCI-H23, > 100 µM (inactive); in the assay with CCRF-CEM, > 31.6 µM (inactive); with SK-MEL-5, > 56.6 µM (inactive); with OVCAR-3 it was > 100 µM (inactive).

Regarding `COc1ccccc1/C=C1\C(=O)N(C(=O)c2ccc(NC(C)=O)cc2)N=C1C`, the GI50 in the assay on SNB-19, in the assay with OVCAR-5, in the assay with KM12, in the assay on SNB-75, in the assay with NCI-H460 and in the assay on COLO 205 was > 100 µM (inactive) throughout. Besides, the GI50 in the assay with HCT-116, in the assay on SNB-78, in the assay with NCI-H23, with CCRF-CEM, in the assay with SK-MEL-5 and in the assay with OVCAR-3 was > 100 µM (inactive) throughout.

Take `COc1cc(OC)c2c(=O)cc(-c3ccc(OC)c(OC)c3OC)oc2c1`: the GI50 in the assay with SNB-19 is > 100 µM (inactive); in the assay with M14 it was > 100 µM (inactive); with OVCAR-5, > 100 µM (inactive); in the assay on KM-20L2, > 100 µM (inactive); with KM12, > 100 µM (inactive); in the assay on SNB-75, 6.95 µM (inactive). For the same compound, the GI50 was > 100 µM (inactive) in the assay on COLO 205; > 100 µM (inactive) in the assay with HCT-116; > 100 µM (inactive) in the assay on NCI-H23; > 10 µM (inactive) with CCRF-CEM; > 100 µM (inactive) with OVCAR-3.
